Test results as given in ChEMBL document CHEMBL1140350, “The endocannabinoid system: drug targets, lead compounds, and potential therapeutic applications” (J Med Chem, 2005).

How the values were obtained:
[1] = Binding affinity for cannabinoid receptor 2
[2] = target: T1, Fatty-acid amide hydrolase 1 (Homo sapiens, UniProt O00519); test: Inhibitory concentration against fatty acid amide hydrolase
T1 sequence (O00519 whole entry): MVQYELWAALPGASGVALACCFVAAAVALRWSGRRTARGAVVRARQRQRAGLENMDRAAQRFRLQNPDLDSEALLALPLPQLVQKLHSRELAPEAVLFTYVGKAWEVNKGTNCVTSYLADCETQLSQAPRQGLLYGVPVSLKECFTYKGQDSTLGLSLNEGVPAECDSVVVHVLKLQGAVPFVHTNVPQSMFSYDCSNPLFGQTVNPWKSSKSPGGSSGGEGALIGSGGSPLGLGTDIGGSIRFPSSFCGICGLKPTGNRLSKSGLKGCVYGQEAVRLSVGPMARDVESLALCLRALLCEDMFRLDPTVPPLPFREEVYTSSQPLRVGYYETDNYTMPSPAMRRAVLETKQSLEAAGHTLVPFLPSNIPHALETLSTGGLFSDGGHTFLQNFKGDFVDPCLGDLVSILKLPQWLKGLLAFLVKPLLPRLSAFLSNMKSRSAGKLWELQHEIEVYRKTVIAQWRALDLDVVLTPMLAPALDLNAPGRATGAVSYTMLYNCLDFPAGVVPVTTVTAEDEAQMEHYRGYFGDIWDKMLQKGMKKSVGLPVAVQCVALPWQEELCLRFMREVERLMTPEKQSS

Monoglyceride lipase = target: T2, Monoglyceride lipase (Homo sapiens, UniProt Q99685); test: Inhibitory concentration against monoacylglycerol lipase
T2 sequence (Q99685 whole entry): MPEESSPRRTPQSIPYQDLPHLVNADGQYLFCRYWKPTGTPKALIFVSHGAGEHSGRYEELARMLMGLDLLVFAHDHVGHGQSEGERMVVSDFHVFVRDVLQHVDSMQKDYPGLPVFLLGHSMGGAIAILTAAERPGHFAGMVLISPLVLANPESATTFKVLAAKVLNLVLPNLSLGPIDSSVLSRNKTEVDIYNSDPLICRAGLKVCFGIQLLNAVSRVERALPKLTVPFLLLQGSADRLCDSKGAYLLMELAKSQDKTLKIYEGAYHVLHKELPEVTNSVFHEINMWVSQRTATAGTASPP

[3] = target: T3, N-acylethanolamine-hydrolyzing acid amidase (Homo sapiens, UniProt Q02083); test: Inhibitory concentration against N-palmitoylethanolamine acid amidase
T3 sequence (Q02083 whole entry): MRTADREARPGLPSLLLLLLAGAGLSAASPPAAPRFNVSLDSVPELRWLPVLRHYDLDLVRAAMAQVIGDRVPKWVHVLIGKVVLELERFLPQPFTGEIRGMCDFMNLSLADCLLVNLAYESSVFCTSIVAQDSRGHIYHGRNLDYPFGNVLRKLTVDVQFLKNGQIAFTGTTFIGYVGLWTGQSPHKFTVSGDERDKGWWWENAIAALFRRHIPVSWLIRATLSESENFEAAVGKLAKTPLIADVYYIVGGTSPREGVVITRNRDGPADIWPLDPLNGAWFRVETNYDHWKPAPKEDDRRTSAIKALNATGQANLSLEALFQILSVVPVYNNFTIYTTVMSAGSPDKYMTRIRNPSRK

[4] = target: T4, N-acylethanolamine-hydrolyzing acid amidase (Homo sapiens) (UniProt Q02083); test: Percent inhibition aganist N-palmitoylethanolamine acid amidase at 10 uM
T4 sequence (whole entry): T3 sequence (Q02083 whole entry)

[5] = target: T5, Fatty-acid amide hydrolase 1 (Mus musculus) (UniProt O08914); test: Inhibitory potency against fatty acid amide hydrolase activity in mouse brain microsomes in presence of 58 uM anandamide at 160 uM; type: functional; conditions: Microsome
T5 sequence (whole entry): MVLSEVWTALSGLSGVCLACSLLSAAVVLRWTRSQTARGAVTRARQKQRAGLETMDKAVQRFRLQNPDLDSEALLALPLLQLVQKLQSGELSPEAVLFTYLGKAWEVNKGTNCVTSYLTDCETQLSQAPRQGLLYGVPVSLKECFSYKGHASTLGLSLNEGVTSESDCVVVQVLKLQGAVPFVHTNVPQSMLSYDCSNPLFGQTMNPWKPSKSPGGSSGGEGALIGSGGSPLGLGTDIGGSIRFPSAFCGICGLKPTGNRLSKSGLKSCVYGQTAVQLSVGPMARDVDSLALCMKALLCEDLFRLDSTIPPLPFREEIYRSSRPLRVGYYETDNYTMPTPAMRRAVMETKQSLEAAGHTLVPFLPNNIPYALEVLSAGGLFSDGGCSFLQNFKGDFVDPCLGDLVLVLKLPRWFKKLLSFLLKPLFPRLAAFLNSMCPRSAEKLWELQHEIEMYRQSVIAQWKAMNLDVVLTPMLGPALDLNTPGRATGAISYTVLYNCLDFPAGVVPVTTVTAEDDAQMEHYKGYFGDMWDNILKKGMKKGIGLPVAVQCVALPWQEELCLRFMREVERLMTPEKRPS

[6] = target: T1, Fatty-acid amide hydrolase 1; test: Irreversible inhibition of fatty acid amide hydrolase; range=. 5-6 nM
[7] = target: T1, Fatty-acid amide hydrolase 1; test: Binding affinity for fatty acid amide hydrolase
[8] = target: T1, Fatty-acid amide hydrolase 1; test: Irreversible inhibition of fatty acid amide hydrolase
Cannabinoid receptor 1 [9] = target: T6, Cannabinoid receptor 1 (Rattus norvegicus, UniProt P20272); test: (§1) Binding affinity for cannabinoid receptor 1
T6 sequence (P20272 whole entry): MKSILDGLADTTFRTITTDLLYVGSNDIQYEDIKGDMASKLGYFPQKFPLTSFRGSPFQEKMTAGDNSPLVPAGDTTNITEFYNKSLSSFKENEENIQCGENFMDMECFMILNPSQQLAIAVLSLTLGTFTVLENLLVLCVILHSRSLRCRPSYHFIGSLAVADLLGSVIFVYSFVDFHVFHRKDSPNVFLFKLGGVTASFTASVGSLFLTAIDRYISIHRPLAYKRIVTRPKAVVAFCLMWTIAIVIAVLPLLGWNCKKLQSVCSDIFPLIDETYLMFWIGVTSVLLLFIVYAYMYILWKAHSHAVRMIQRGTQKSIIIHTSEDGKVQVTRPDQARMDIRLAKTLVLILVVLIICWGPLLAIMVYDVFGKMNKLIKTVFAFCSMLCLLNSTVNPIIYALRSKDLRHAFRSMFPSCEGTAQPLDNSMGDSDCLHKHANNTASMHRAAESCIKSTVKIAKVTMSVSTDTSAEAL

[10] = target: T1, Fatty-acid amide hydrolase 1; test: Apparent binding affinity for fatty acid amide hydrolase
Cannabinoid receptor 1 [11] = target: Cannabinoid receptor 1 (Homo sapiens, UniProt P21554); test: as §1
Chain of Cannabinoid receptor 1 (Homo sapiens, UniProt P21554) (P21554 whole entry): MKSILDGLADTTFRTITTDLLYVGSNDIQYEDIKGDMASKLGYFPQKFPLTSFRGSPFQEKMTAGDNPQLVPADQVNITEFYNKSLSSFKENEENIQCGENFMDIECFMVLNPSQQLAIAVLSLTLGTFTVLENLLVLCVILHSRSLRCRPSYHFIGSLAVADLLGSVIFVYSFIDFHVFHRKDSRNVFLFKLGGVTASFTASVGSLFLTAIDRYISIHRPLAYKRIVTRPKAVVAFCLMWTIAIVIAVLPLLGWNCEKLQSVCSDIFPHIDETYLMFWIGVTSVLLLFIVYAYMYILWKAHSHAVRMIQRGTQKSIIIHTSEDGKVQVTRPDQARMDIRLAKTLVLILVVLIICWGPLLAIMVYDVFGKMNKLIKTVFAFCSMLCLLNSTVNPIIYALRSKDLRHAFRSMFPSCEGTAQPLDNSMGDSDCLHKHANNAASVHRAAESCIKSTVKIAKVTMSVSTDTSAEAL

[12] = target: T1, Fatty-acid amide hydrolase 1; test: Inhibition of fatty acid amide hydrolase; range =. 23-3 uM
Mus musculus = species: Mus musculus; test: Concentration required to inhibit anandamide uptake from the extracellular medium into cells; type: functional, cell-based
Cannabinoid receptor = Cannabinoid receptor (Homo sapiens, UniProt P34972+P21554); test: Binding affinity for Cannabinoid receptor; type: protein assay
Homo sapiens = species: Homo sapiens; test: Concentration required to inhibit anandamide uptake into human monocytes; type: functional
[13] = target: T1, Fatty-acid amide hydrolase 1; test: Inhibition of fatty acid amide hydrolase; range = 4.1-7 uM
Cannabinoid receptor 1 [14] = target: T6, Cannabinoid receptor 1; test: Inhibition of [3H]CP-55940 binding to rat cannabinoid receptor 1
[15] = target: T1, Fatty-acid amide hydrolase 1; test: Binding affinity for human fatty acid amide hydrolase

## CCCCCCC(C)(C)c1ccc([C@@H]2C[C@H](O)CC[C@H]2CCCO)c(O)c1 [CP-55940]
[1]
  Ki: 2.6 nM

## O=C(CCCCCCc1ccccc1)c1nc2ncccc2o1
[2]
  IC50: 2.1 nM

## CCCCC/C=C\C/C=C\C/C=C\C/C=C\CCC(C)C(=O)OCC(O)CO (stereo not drawn)
[2]
  IC50: ~11000 nM
Monoglyceride lipase
  IC50: ~11000 nM

## CCCCCCCCCCCCCCCNC(=O)CCO
[3]
  IC50: 54000 nM

## CC(C)c1cccc(C(C)C)c1O [PROPOFOL]
[2]
  IC50: 52000 nM

## CCCCCCCCCCCCCCCC(=O)NCC(=O)OC
[2]
  IC50: 10000 nM

## Cc1c(C(=O)c2cccc3ccccc23)c2cccc3c2n1[C@H](CN1CCOCC1)CO3 [WIN-552122]
[1]
  Ki: 1.8 nM

## CCCCCCCCCCCCCCCNC(=O)c1ccccc1
[4]
  inhibition: 61%

## C=C(C)[C@@H]1CCC(C)=C[C@H]1c1c(O)cc(CCCCC)cc1O
[5]
  inhibition: 66%

## CCCCC/C=C\C/C=C\C/C=C\C/C=C\CCCC(=O)[CH-][N+]#N
[6]
  IC50: 6 nM

## CCCCCCCC/C=C\CCCCCCCC(=O)c1nc2ncccc2o1
[7]
  Ki: 2.3 nM

## O=C(CCCCCCCc1ccccc1)C(F)(F)F
[7]
  Ki: 25 nM

## CC(C)(/C=C\C/C=C\C/C=C\C/C=C\CCCC(=O)OCC(O)CO)CCCCO (stereo not drawn)
[2]
  IC50: ~11000 nM
Monoglyceride lipase
  IC50: ~11000 nM

## CCCCCCCCCCCCCCCCCCS(=O)(=O)F [OCTADECANESULFONYL FLUORIDE]
[8]
  IC50: 4 nM

## CCCCCCCCCCCCCCCC(=O)OC1CCCCC1 [CYCLOHEXYL PALMITATE]
[3]
  IC50: 19000 nM

## CCCCC/C=C\C/C=C\C/C=C\C/C=C\CCCC(=O)c1nc2ncccc2o1
[7]
  Ki: 1 nM

## CCCCC/C=C\C/C=C\C/C=C\C/C=C\CCCCOC(CO)CO
Cannabinoid receptor 1 [9]
  Ki: 21 nM

## O=C1O/C(=C/Br)CCC1c1cccc2ccccc12 (stereo not drawn) [BROMOENOL LACTONE]
[8]
  IC50: 800 nM

## CCCCCCCc1ccc(CCCCCCC(=O)C(F)(F)F)cc1
[10]
  Ki: 96 nM

## CCCCCCCCCCC[C@@H](C[C@@H]1OC(=O)[C@H]1CCCCCC)OC(=O)[C@H](CC(C)C)NC=O [ORLISTAT]
Cannabinoid receptor 1 [11]
  IC50: ≤ 100 nM

## CCCCC/C=C\C/C=C\C/C=C\C/C=C\CCCC(=O)C(F)(F)F [ARACHIDONYL TRIFLUOROMETHYLKETONE]
[12]
  IC50: 3000 nM

## CCCCC/C=C\C/C=C\CC/C=C\CCCC(=O)NCCc1ccc(O)c(O)c1
[2]
  IC50: 19000 nM

## CCCCCc1cc(O)c2c(c1)OC(C)(C)c1ccc(C)cc1-2
[5]
  inhibition: 46%

## CCCCCCCC/C=C\CCCCCCCC(=O)C(F)(F)F
[7]
  Ki: 1.2 nM

## CCCCCCCCCCCCCCCNC(=O)COC(C)=O [ACETIC ACID PENTADECYLCARBAMOYLMETHYL ESTER]
[2]
  IC50: 8000 nM

## CCCCC/C=C\C/C=C\C/C=C\C/C=C\CCCC(=O)NCCc1c[nH]c2ccc(O)cc12
[2]
  IC50: 12000 nM

## CCCCCc1cc(O)c2c(c1)OC(C)(C)[C@@H]1CCC(C)=C[C@@H]21 [DRONABINOL]
[1]
  Ki: 20 nM
[5]
  inhibition: 31%

## CCCCC/C=C\C/C=C\C/C=C\C/C=C\CCCC(=O)Nc1ccc(O)cc1
Mus musculus
  IC50: ~10000 nM

## CCCCCCCC/C=C\CCCCCCC(C)C(=O)c1nc2ncccc2o1 (stereo not drawn)
[7]
  Ki: 9.1 nM

## CCCCCCCCCCCCCCCCOC(=O)CC [HEXADECYLPROPIONATE]
[3]
  IC50: 32000 nM

## CCCCCCCCCCCCCCCNC(=O)C1CCCCC1 [CYCLOHEXANECARBOXYLIC ACID PENTADECYLAMIDE]
[3]
  IC50: 4500 nM
[4]
  inhibition: 66%

## CCCCCC[C@@H](C)OC(=O)CC(=O)CBr
Cannabinoid receptor
  Ki: 800 nM

## O=S(=O)(F)Cc1ccccc1 [PHENYLMETHYLSULFONYLFLUORIDE]
[8]
  IC50: 13000 nM

## C=CCOc1ccc(CN(C/C=C/c2ccccc2)CCCC)cc1
Homo sapiens
  IC50: 90 nM

## CCCCC/C=C\C/C=C\C/C=C\C/C=C\CCCC(=O)OCCN
Cannabinoid receptor 1 [9]
  Ki: 1900 nM
[1]
  Ki: 1400 nM

## CCCCC/C=C\C/C=C\C/C=C\C/C=C\CCCC(=O)NCCc1ccc(O)c(O)c1 [ARACHIDONOYL DOPAMINE]
Cannabinoid receptor 1 [9]
  Ki: 250 nM
[1]
  Ki: 12 nM

## CCCCC/C=C\C/C=C\C/C=C\C/C=C\CCCC(=O)NCC(=O)O [ARACHIDONOYL GLYCINE]
[13]
  IC50: 7000 nM

## CCCCCCCC/C=C\CCCCCCCC(N)=O [OLEAMIDE]
Cannabinoid receptor 1 [14]
  Ki: 1140 nM

## O=C(CCCCCc1ccccc1)c1nc2ncccc2o1
[15]
  Ki: 0.094 nM

## CCCCCCCCCCCCCCCC(=O)NC(C)C [HEXADECANOIC ACID ISOPROPYLAMIDE]
[2]
  IC50: 13 nM

## CC(C)(/C=C\C/C=C\C/C=C\C/C=C\CCCC(=O)OCC(O)CO)CCCCC#N (stereo not drawn)
[2]
  IC50: ~11000 nM
Monoglyceride lipase
  IC50: ~11000 nM

## CCCCC/C=C\C/C=C\C/C=C\C/C=C\CCCC(=O)OCCO
[2]
  IC50: > 25000 nM
Monoglyceride lipase
  IC50: 25000 nM

## CCCCC/C=C\C/C=C\C/C=C\C/C=C\CCCC(=O)NCCO [ANANDAMIDE]
[1]
  Ki: 370 nM

## CCCCCCCCCCCCS(=O)(=O)F [DODECANESULFONYL FLUORIDE]
[8]
  IC50: 3 nM

## CCCCC/C=C\C/C=C\C/C=C\C/C=C\CCCCS(=O)(=O)F
[8]
  IC50: 0.1 nM
